The record followed here is patent publication US20260297106A1, “SPIROCYCLIC SUBSTITUTED OXOISOINDOLINYL PIPERIDINE-2,6-DIONE COMPOUND” (Bristol-Myers Squibb Company, priority 2023, published 2026).

Assay [1] has as its target T1, IKZF4 Eos (Homo sapiens, UniProt Q96SW2+Q9H2S9).
T1 construct: T cells were isolated from fresh healthy leukopaks; endogenous in cells; host or cells: FACS-sorted primary human CD4+ CD127low CD25+ Treg cells from healthy leukopaks
Nature of the assay: Human Regulatory T Cell Reprogramming Assay (IKZF4 Eos). It is filed as cell-based. The note with it: CD4+ CD127low CD25+ Treg cells, 12-13 days; for DC50: concentration reducing protein level by 50% vs DMSO; for Dmax: Regulatory T cell, human, read-out: Maximum Observed Degradation IKZF4 Eos. As to the method:
Human CD4^+ T cells were isolated from fresh healthy leukopaks (Stemcell Technologies) using the RosetteSep Human CD4^+ T cell enrichment cocktail (Stemcell Technologies) and Ficoll density gradient centrifugation. Leukopaks were diluted with an equal volume of phosphate-buffered saline (PBS [Gibco]) supplemented with 2% fetal bovine serum (FBS, VWR Lifescience) and incubated with RosetteSep Human CD4^+ T cell enrichment cocktail for 20 minutes before layering on Ficoll-Paque Plus solution (GE Health Care). The cell-rich interface layer was harvested and washed twice with PBS supplemented with 2% FBS. Regulatory T cells were then isolated manually using the EasySep Human CD4 CD1271WCD25^+ Regulatory T cell isolation kit (Stemcell Technologies) according to the manufacturer's instructions. Cells were rested overnight in Roswell Park Memorial Institute (RPMI) 1640 media (Gibco) supplemented with 10% FBS, Pen/Strep (Gibco), MEM-NEAA (Gibco), and sodium pyruvate (Gibco) in a humidified incubator (37° C., 5% CO2). Cells were then stained for CD4 (clone: RPA-T4, Biolegend), CD25 (clone: 2A3, BD Biosciences), and CD127 (clone: hIL-7R-M21, BD Biosciences). CD4^+ CD127^lowCD25^+ cells were sorted on a BD FACS Aria Fusion sorter to a purity of 95% or greater. Sorted cells were immediately used or cryopreserved for downstream assays.
Fresh or cryopreserved FACS-sorted CD4^+ CD127^lowCD25^+ Treg cells were cultured at 25,000-50,000 cells/well of 96-well round bottom plates in RPMI 1640 media (Gibco) supplemented with 10% FBS, Pen/Strep (Gibco), MEM-NEAA (Gibco), and sodium pyruvate (Gibco). Cells were stimulated with Treg Xpander beads (Thermo Fisher) at cells-to-beads ratio of 1:4 in the presence of 500 U/mL recombinant human IL-2 (Proleukin). Compounds were added at titrated doses and cells were incubated at 37° C., 5% CO2 for 12-13 days. Recombinant human IL-2 and compound were replenished every 2-3 days during the entire culture duration. On day 12 or 13, cells were restimulated with phorbol 12-myristate 13-acetate (PMA) and ionomycin in the presence of the protein transport inhibitors brefeldin A and monensin (eBioscience Cell Stimulation Cocktail plus protein transport inhibitors, 500×, Catalog number 00-4975-93) before proceeding with flow cytometry staining and analysis.
For flow cytometry staining, cells were washed twice with flow cytometry staining buffer (Thermo Fisher) and incubated in Human Tru-stain Fc block (Biolegend) for 10 minutes before adding eFluor780 viability dye (Thermo Fisher) and surface marker antibody cocktail for 30 minutes at 4° C. Cells were then fixed and permeabilized by incubation with FoxP3 transcription factor staining buffer (Thermo Fisher) for 30 minutes at 4° C. as per the kit manufacturer's instructions. Cells were washed twice with the Perm/Wash buffer supplied in the kit as per the manufacturer's instructions and incubated overnight at 4° C. with an intracellular antibody cocktail comprised of antibodies specific for the transcription factors shown in Table C. Cells were washed twice with Perm/Wash buffer and resuspended in flow cytometry staining buffer (Thermo Fisher) prior to acquisition. Sample acquisition and analysis was performed using a BD LSRFortessa (BD Biosciences) flow cytometer. Single stain controls for each fluorochrome were prepared using UltraComp eBead Compensation Beads (Thermo Fisher). Data were analyzed using FlowJo version 10 and GraphPad Prism Software.
Table C-1 lists the maximum observed degradation of the IKZF2 protein and IKZF4 protein as measured in the Human Regulatory T Cell Reprogramming assay. The results in Table C-1 were rounded to two digits. In the Human Regulatory T Cell Reprogramming assay, a value of 100% indicated no detectable protein remaining or complete degradation of the protein; and a value of 0% indicated no detectable degradation of the protein by the test compound.

The target in assay [2] is IKZF1 Ikaros (Homo sapiens, UniProt Q13422+Q96SW2). Nature of the assay: Human Regulatory T Cell Degradation Assay (IKZF1 Ikaros). It is filed as cell-based. Details: Cryopreserved healthy donor human peripheral blood mononuclear cells; endogenous in cells; host or cells: primary human PBMC, CD8+ T cells read by flow cytometry. The following applies: human regulatory T cells, 20 hours, 100% = no detectable protein remaining, read-out: IKZF1 Ikaros max % deg. observed. As to the method:
Cryopreserved human regulatory T cells were thawed in RPMI+10% FBS+20 ng/mL IL-2. After being spun at 1200 rpm for 5 mins, the cells were resuspended in RPMI+10% FBS+20 ng/ml and rested at 37° C. with 5% CO2 for 3 hours. The cells were then plated at 40,000 cells/well in 40 μL RPMI+10% FBS+20 ng/ml human IL~2 in a 384 well cell culture plate prior to using acoustic dispensing technology (ECHO 555) for adding compounds of interest. Cell cultures were incubated for 20 hours at 37° C. and 5% CO2. In order to facilitate analysis, cell cultures were spun down at 1200 rpm for 5 minutes and the supernatant was discarded using an EL406 plate washer. After washing three times with 70 μL PBS, cell pellets were resuspended in 50 μL of near IR viability staining solution (Life Technologies, Cat #L34975) and incubated for 30 minutes on ice protected from light. Cells were washed three times with 70 μL PBS+0.5% BSA using an EL406 plate washer. After shaking the plate to dislodge the cell pellet, cells were resuspended in 50 μL of Fixation Buffer (eBioScience FoxP3 buffer set 00-5523-00) for 60 minutes at room temperature. After centrifuging and discarding the supernatant, cells were permeabilized with 50 μL of permeabilization buffer (eBioScience FoxP3 buffer set 00-5523-00) for 10 minutes at room temperature. Following permeabilization, cells were spun down and the supernatant was replaced with 30 μL fluorescently labelled antibodies against the intracellular targets Helios (Helios-APC [BioLegend, Cat #137222, 1:50])]), Aiolos, and Ikaros Ix Permeabilization buffer and staining reactions were incubated for 1 hour at room temperature; protected from light. Subsequently, 30 μL of 1× Permeabilization buffer was added prior to centrifuging the cells and discarding the supernatant. Stained cells were resuspended in 30 μL of flow cytometry staining buffer (PBS+0.5% BSA) and analyzed using an Intellicyt Ique Plus flow cytometer.
Table B-1 lists the maximum observed degradation of the IKZF1 protein and IKZF2 protein as measured in the Human Regulatory Cell T Degradation assay. […]

T1 sequence (Q9H2S9 whole entry): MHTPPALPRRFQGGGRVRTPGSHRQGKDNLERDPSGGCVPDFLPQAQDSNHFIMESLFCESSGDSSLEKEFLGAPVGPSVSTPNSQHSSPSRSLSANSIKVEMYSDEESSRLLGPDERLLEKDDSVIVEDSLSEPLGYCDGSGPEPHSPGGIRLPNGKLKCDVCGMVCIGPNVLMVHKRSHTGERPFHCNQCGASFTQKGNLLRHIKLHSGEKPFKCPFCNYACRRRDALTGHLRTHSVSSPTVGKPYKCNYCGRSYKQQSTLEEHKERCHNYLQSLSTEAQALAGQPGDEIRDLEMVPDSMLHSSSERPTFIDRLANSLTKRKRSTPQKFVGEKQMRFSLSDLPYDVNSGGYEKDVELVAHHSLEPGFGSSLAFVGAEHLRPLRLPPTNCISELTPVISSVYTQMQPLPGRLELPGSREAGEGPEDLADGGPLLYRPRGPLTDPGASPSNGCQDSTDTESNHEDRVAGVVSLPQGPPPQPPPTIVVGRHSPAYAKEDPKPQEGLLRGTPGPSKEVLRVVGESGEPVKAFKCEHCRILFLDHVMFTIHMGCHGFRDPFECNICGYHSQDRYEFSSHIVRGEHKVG
T1 sequence (Q96SW2 whole entry): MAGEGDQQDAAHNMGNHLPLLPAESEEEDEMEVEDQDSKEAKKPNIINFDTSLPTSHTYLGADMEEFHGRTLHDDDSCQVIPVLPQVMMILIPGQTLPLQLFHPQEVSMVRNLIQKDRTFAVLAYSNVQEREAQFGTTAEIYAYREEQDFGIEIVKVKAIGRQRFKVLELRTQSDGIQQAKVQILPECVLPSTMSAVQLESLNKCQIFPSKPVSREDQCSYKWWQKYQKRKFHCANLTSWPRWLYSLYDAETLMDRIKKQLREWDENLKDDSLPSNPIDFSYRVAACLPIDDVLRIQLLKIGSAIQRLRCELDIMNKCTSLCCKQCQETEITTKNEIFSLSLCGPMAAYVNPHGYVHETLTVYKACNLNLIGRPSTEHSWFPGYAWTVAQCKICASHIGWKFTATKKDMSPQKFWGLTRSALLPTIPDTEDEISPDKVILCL
T1 sequence (Q16531 whole entry partner): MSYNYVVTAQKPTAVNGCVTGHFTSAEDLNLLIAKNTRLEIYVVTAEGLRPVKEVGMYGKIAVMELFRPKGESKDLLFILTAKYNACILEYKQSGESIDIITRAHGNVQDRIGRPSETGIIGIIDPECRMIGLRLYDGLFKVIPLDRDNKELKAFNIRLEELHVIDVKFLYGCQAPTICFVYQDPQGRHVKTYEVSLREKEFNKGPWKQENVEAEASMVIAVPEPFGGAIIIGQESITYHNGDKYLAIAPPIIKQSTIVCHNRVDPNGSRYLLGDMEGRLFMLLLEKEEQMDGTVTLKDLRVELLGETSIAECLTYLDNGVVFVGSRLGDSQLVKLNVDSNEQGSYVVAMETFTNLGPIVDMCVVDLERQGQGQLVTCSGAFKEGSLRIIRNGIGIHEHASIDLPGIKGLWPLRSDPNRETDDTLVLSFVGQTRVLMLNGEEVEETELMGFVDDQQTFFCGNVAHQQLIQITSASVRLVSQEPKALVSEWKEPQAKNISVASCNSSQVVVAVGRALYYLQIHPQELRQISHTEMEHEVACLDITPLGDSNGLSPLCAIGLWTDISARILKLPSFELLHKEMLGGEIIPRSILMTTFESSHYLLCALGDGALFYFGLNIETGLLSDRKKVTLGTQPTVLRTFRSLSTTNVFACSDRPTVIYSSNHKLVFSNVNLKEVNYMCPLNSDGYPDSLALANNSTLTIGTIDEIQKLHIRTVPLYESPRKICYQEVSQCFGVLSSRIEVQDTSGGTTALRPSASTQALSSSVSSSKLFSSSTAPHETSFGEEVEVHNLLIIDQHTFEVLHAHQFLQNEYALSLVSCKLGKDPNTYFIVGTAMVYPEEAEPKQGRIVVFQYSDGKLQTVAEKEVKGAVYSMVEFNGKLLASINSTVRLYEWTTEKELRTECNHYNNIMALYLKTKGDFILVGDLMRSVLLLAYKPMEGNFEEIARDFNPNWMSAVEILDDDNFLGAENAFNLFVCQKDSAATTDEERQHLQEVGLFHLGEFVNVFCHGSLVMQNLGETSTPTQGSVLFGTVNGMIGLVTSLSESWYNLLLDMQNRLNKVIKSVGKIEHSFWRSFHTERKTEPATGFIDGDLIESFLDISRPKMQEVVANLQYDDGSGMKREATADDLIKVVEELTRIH
Chain of IKZF1 Ikaros (Q13422 whole entry): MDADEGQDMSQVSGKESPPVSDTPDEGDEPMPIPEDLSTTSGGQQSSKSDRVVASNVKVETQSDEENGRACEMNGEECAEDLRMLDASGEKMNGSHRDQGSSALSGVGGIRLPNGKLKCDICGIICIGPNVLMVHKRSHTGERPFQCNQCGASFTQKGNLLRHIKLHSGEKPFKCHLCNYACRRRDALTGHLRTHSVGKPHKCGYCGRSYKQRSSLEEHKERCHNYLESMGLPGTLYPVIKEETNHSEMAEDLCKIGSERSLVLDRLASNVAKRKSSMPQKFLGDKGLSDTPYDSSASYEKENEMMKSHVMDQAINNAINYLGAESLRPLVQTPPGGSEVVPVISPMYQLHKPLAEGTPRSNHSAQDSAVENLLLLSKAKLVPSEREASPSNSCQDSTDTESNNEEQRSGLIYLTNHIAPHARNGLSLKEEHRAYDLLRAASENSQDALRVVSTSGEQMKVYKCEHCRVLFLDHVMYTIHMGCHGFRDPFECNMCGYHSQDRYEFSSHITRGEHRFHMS
Chain of IKZF1 Ikaros (Q96SW2 whole entry): as the sequence (Q96SW2 whole entry) above
Chain of IKZF1 Ikaros (Q16531 whole entry partner): as the sequence (Q16531 whole entry partner) above

`O=C1CCC(N2Cc3c(ccc(-c4cc(CN5CC(c6ccccc6)C5)ccn4)c3F)C2=O)C(=O)N1` (stereo not drawn) [Comparative Compound A, 3-(4-fluoro-1-oxo-5-(4-((3-phenylazetidin-1-yl)methyl)pyridin-2-yl)isoindolin-2-yl) piperidine-2,6-dione]: in assay [1], the DC50 came out at 0.1 nM and the Dmax was determined as 92%. For the same compound, the Dmax in assay [2] was 19%.
Take `Nc1nc(-c2ccc3c(c2)CN(C2CCC(=O)NC2=O)C3=O)ccc1CN1CC2(CCC2)C1` (stereo not drawn) [Comparative Compound B, 3-(5-(5-((2-azaspiro[3.3]heptan-2-yl)methyl)-6-aminopyridin-2-yl)-1-oxoisoindolin-2-yl) piperidine-2,6-dione]: the DC50 in assay [1] amounted to 1 nM. In addition, the Dmax in assay [1] was 95%; in assay [2] it was 37%.
Taken in the same sequence, the figures for `Nc1nc(-c2ccc3c(c2F)CN(C2CCC(=O)NC2=O)C3=O)ccc1CN1CC2(CCCOC2)C1` (stereo not drawn) [Example 1, 3-(5-(5-((6-oxa-2-azaspiro[3.5]nonan-2-yl)methyl)-6-aminopyridin-2-yl)-4-fluoro-1-oxoisoindolin-2-yl) piperidine-2,6-dione] were 3.4 nM, 65% and 49%.
